Results on 18 molecules are retold here after article PMC6272913, “Synthesis of Bioactive 2-(Arylamino)thiazolo[5,4-f]-quinazolin-9-ones via the Hügershoff Reaction or Cu- Catalyzed Intramolecular C-S Bond Formation” (Molecules, 2016).

Several values for one entry are separate records, joined by “and”; a condition that tells them apart may be missing. Equal values may be shown once. Read-outs that look alike come from different tables or passages of the source.

The target in one experiment is T1, CDK5/p25 (Homo sapiens, UniProt Q00535).
T1 construct: made in house
In words: CDK5/p25 in vitro kinase assay (histone H1, [γ-33P] ATP). Format: biochemical.

A further experiment concerns the target CK1δ/ε. Put plainly: CK1δ/ε in vitro kinase assay (CK1-specific peptide substrate). The settings on record: 15 μM ATP, 30 min at 30 °C, triplicate; >10 = less than 50% inhibition at 10 µM. The experiment is classed as biochemical, Porcine.
For a further experiment, the target named is CLK1 (Homo sapiens, UniProt P49759). In words: CLK1 in vitro kinase assay (RS peptide). Format: biochemical. The settings on record: 15 μM ATP, 30 min at 30 °C, triplicate; >10 = less than 50% inhibition at 10 µM.
Another experiment deals with DYRK1A (Rattus norvegicus, UniProt Q63470). Put plainly: DYRK1A in vitro kinase assay (Woodtide). Format: biochemical. Conditions: 15 μM ATP, 30 min at 30 °C, triplicate; >10 = less than 50% inhibition at 10 µM.
Another experiment has as its target GSK-3α/β. Put plainly: GSK-3α/β in vitro kinase assay (GS-1 peptide). Format: biochemical, Porcine. Conditions: 15 μM ATP, 30 min at 30 °C, triplicate; >10 = less than 50% inhibition at 10 µM.
Where [1] appears, read: 15 μM ATP, 30 min at 30 °C, triplicate, >10 = less than 50% inhibition at 10 µM.

T1 sequence (Q00535 whole entry): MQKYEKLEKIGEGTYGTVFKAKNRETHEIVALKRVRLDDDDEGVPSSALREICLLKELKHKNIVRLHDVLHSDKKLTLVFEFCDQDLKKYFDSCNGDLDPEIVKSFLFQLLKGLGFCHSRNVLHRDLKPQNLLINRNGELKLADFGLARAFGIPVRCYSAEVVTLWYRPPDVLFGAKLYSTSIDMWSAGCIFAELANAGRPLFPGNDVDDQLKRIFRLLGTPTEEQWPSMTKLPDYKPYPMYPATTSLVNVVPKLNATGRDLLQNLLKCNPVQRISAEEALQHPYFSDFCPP
T1 sequence (Q15078 99-307 partner limits assumed): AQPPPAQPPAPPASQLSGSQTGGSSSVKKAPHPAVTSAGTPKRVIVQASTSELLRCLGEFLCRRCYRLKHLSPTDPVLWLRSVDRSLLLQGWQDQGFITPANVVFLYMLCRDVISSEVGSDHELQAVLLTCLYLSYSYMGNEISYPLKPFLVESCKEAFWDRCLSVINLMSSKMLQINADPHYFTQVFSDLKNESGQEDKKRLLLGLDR
Chain of CLK1 (P49759 whole entry): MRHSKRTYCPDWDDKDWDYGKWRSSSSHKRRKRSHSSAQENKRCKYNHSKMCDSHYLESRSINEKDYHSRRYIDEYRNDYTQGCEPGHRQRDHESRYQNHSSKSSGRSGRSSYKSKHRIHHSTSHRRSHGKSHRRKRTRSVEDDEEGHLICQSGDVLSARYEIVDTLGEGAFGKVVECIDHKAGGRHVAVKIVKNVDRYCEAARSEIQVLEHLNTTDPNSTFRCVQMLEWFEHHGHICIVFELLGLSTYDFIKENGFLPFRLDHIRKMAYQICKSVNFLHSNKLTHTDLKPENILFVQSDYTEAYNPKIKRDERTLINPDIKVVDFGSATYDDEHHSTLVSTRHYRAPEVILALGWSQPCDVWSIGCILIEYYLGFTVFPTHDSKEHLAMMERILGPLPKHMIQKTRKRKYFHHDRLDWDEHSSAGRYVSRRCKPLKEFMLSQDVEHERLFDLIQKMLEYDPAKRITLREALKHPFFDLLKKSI

`O=c1c2c(ccc3nc(NCCN4CCCCC4)sc32)ncn1C1CC1` [Compound 14c, 8-Cyclopropyl-2-([2-(piperidin-1-yl)ethyl]amino)thiazolo[5,4-f]quinazolin-9(8H)-one]: the IC50 against CDK5/p25 (setting [1]) was greater than 10 µM; against CK1δ/ε, greater than 10 µM; against CLK1 it was greater than 10 µM; against DYRK1A, greater than 10 µM; against GSK-3α/β, no less than 10 µM.

Turning to `O=c1c2c(ccc3nc(NCc4ccccc4)sc32)ncn1C1CC1` [Compound 14a, 2-(Benzylamino)-8-cyclopropylthiazolo[5,4-f]quinazolin-9(8H)-one], the IC50 was greater than 10 µM against CDK5/p25; greater than 10 µM at CK1δ/ε; 3.4 µM at CLK1; greater than 10 µM against DYRK1A; greater than 10 µM on GSK-3α/β.

As to `COc1ccc2c(c1)[nH]c1c(C)nccc12` [Harmine, reference compound], the IC50 was 1.5 µM against CK1δ/ε and greater than 10 µM against GSK-3α/β.

Consider `N=C(NCc1ccccc1)c1nc2ccc3ncn(C4CC4)c(=O)c3c2s1` [Compound 17a, N-Benzyl-8-cyclopropyl-9-oxo-8,9-dihydrothiazolo[5,4-f]quinazoline-2-carboximidamide], for which the IC50 against CDK5/p25 is greater than 10 µM; at CK1δ/ε it was greater than 10 µM; against CLK1 it was 1 µM; against DYRK1A, 0.67 µM; on GSK-3α/β, 0.4 µM.

In the case of `O=c1c2c(ccc3nc(Nc4ccccc4)sc32)ncn1C1CC1` [Compound 8a, 8-Cyclopropyl-2-(phenylamino)thiazolo[5,4-f]quinazolin-9(8H)-one], the IC50 against CDK5/p25 is greater than 10 µM; against CK1δ/ε it was greater than 10 µM; at CLK1, 3.4 µM; against DYRK1A it was greater than 10 µM; against GSK-3α/β, no less than 10 µM.

Consider `O=c1c2c(ccc3nc(Nc4cccnc4)sc32)ncn1C1CC1` [Compound 8g, 8-Cyclopropyl-2-(pyridin-3-ylamino)thiazolo[5,4-f]quinazolin-9(8H)-one], for which the concentration for half-maximal inhibition (IC50) against CDK5/p25 is greater than 10 µM; at CK1δ/ε it was greater than 10 µM; at CLK1, 1.7 µM; against DYRK1A, greater than 10 µM; at GSK-3α/β, no less than 10 µM.

As to `N/C(=N\CCN1CCOCC1)c1nc2ccc3ncn(C4CC4)c(=O)c3c2s1` [Compound 17c, (Z)-8-Cyclopropyl-N′-(2-morpholinoethyl)-9-oxo-8,9-dihydrothiazolo[5,4-f]quinazoline-2-carboximidamide], the IC50 at CDK5/p25 is greater than 10 µM; against CK1δ/ε, greater than 10 µM; at CLK1 it was 2.3 µM; on DYRK1A, 3.2 µM; at GSK-3α/β it was 2.8 µM.

Turning to `N=C(c1nc2ccc3ncn(C4CC4)c(=O)c3c2s1)N1CCOCC1` [Compound 17e, 8-Cyclopropyl-2-[imino(morpholino)methyl]thiazolo[5,4-f]quinazolin-9(8H)-one], the IC50 against CDK5/p25 (setting [1]) is greater than 10 µM; against CK1δ/ε, 1.9 µM; against CLK1 it was 0.38 µM; against DYRK1A, 0.14 µM; on GSK-3α/β, 0.23 µM.

`CN(C)CCNc1nc2ccc3ncn(C4CC4)c(=O)c3c2s1` [Compound 14b, 8-Cyclopropyl-2-([2-(dimethylamino)ethyl]amino)thiazolo[5,4-f]quinazolin-9(8H)-one]: the IC50 is greater than 10 µM at CDK5/p25; greater than 10 µM on CK1δ/ε; greater than 10 µM at CLK1; greater than 10 µM on DYRK1A; no less than 10 µM against GSK-3α/β.

Take `O=c1c2c(ccc3nc(N4CCCCC4)sc32)ncn1C1CC1` [Compound 14e, 8-Cyclopropyl-2-(piperidin-1-yl)thiazolo[5,4-f]quinazolin-9(8H)-one]: the IC50 is greater than 10 µM against CDK5/p25; greater than 10 µM on CK1δ/ε; 5.3 µM at CLK1; greater than 10 µM on DYRK1A; no less than 10 µM against GSK-3α/β.

Consider `CN(C)c1ccc(Nc2nc3ccc4ncn(C5CC5)c(=O)c4c3s2)cc1` [Compound 8j, 8-Cyclopropyl-2-([4-(dimethylamino)phenyl]amino)thiazolo[5,4-f]quinazolin-9(8H)-one], for which the half-maximal inhibitory concentration (IC50) at CDK5/p25 was greater than 10 µM; on CK1δ/ε, greater than 10 µM; at CLK1, 1.3 to 7.3 µM and 1.3 µM; against DYRK1A, 1.3 to 7.3 µM and 2 µM.

As for `N/C(=N\CCN1CCCCC1)c1nc2ccc3ncn(C4CC4)c(=O)c3c2s1` [Compound 17d, (Z)-8-Cyclopropyl-9-oxo-N′-[2-(piperidin-1-yl)ethyl]-8,9-dihydrothiazolo[5,4-f]quinazoline-2-carboximidamide], the IC50 is greater than 10 µM against CDK5/p25; greater than 10 µM against CK1δ/ε; 2.1 µM at CLK1; 2.9 µM against DYRK1A; 3.9 µM against GSK-3α/β.

Take `CN(C)CC/N=C(\N)c1nc2ccc3ncn(C4CC4)c(=O)c3c2s1` [Compound 17b, (Z)-8-Cyclopropyl-N′-[2-(dimethylamino)ethyl]-9-oxo-8,9-dihydrothiazolo[5,4-f]quinazoline-2-carboximidamide]: the IC50 at CDK5/p25 is greater than 10 µM; against CK1δ/ε, greater than 10 µM; on CLK1, 0.29 µM; against DYRK1A, 4.4 µM; at GSK-3α/β, 1.1 µM.

As for `COc1cc2nc(Nc3ccc4ncn(C5CC5)c(=O)c4c3)sc2cc1OC` [Compound 10l, 3-Cyclopropyl-6-((5,6-dimethoxybenzo[d]thiazol-2-yl)amino)quinazolin-4(3H)-one], the IC50 is greater than 10 µM against CDK5/p25; greater than 10 µM against CK1δ/ε; greater than 10 µM against CLK1; greater than 10 µM against DYRK1A; no less than 10 µM on GSK-3α/β.

As for `N=C(c1nc2ccc3ncn(C4CC4)c(=O)c3c2s1)N1CCCCC1` [Compound 17f, 8-Cyclopropyl-2-[imino(piperidin-1-yl)methyl]thiazolo[5,4-f]quinazolin-9(8H)-one], the IC50 on CDK5/p25 (setting [1]) was greater than 10 µM; against CK1δ/ε, greater than 10 µM; against CLK1, 0.61 µM; against DYRK1A, 0.82 µM; at GSK-3α/β, 0.49 µM.

For the molecule `O=c1c2c(ccc3nc(NCCN4CCOCC4)sc32)ncn1C1CC1` [Compound 14d, 8-Cyclopropyl-2-[(2-morpholinoethyl)amino]thiazolo[5,4-f]quinazolin-9(8H)-one], the IC50 on CDK5/p25 is greater than 10 µM; at CK1δ/ε, greater than 10 µM; at CLK1 it was 8.1 µM; against DYRK1A it was 8.2 µM; against GSK-3α/β, no less than 10 µM.

Regarding “8-Cyclopropyl-2-(piperidin-1-yl)thiazolo[5,4-f]quinazolin-9(8H)-one [Compound 14f]”, the IC50 is greater than 10 µM against CDK5/p25 (setting [1]); greater than 10 µM against CK1δ/ε; greater than 10 µM against CLK1; greater than 10 µM against DYRK1A; no less than 10 µM against GSK-3α/β.

For the molecule `O=c1c2cc(Nc3nc4ccccc4s3)ccc2ncn1C1CC1` [Compound 10a, 3-Cyclopropyl-6-[(benzo[d]thiazol-2-yl)amino]quinazolin-4(3H)-one], the IC50 against CDK5/p25 is greater than 10 µM; against CK1δ/ε it was greater than 10 µM; at CLK1, 5.2 µM; on DYRK1A it was 4.8 µM; at GSK-3α/β, no less than 10 µM.

A word on the IC50: it is the concentration at which inhibition is half-maximal. High values mean lower potency, low ones higher potency.
